Values joined by “and” are separate entries in the source; they are usually repeats but may differ in a detail not shown here. Identical values can stand only once. Ends that are not written are not given here.
Assays:
U87 cells [1] = assay: Apo-ONE caspase 3/7 activation assay in U87 glioblastoma cells; assay type: cell-based
Protocol: Activation of caspase enzymes occurs in the early stages of apoptosis. In this Example, we investigated the effect on caspase activation of ST-3 in combination with the Bcl-2 inhibitor ABT-263 (Navitoclax). U87 cells were prepared as described in Example 2 for T98G cells. Lyophilized ST-3 was freshly reconstituted in Tris Buffer at a concentration of 5 mg/mL, and adjusted to a working concentration of 200 μM. ST-3 was added to cells in 100 μL Tris Buffer at a final concentration range of 0-20 μM. […] Plates were incubated at ambient temperature in the dark for 1.5-2 hours. Fluorescence was recorded by Eppendorf PlateReader AF2200 at Ex. 485 nm/Em. 527 nm.

[2] = system: HL60 promyelocytic leukemia (PML) cells; assay: Annexin V/PI cell viability assay in HL60 cells; assay type: cell-based, human; conditions: for EC50: HL60, Annexin V/PI viability, 48 hours, read-out: EC50 (μM) of ATF-5-Derived Polypeptides in Cancer Cells, HL60
Protocol: (§1) ST-3, reconstituted at a concentration of 10 mg/mL in 20 mM His, pH 7.5, was added to each well at a volume of 50 μL to a final concentration range of 0-80 μM. Cells were incubated with ST-3 for 48 hours at 37° C. Cell viability was quantified by flow cytometry using an Annexin V FITC apoptosis detection kit from Abcam. Briefly, cells were washed with PBS and resuspended in 1× assay buffer containing Annexin V FITC and propidium iodide (PI). Annexin V detects apoptotic cells, and PI stains dead cells. After staining, apoptotic cells show green fluorescence, dead cells show red and green fluorescence, and live cells show little or no fluorescence. Cells were selected for analysis based on forward scatter (FSC) vs. side scatter (SSC), and analyzed by BD Accuri C6 Plus flow cytometer to detect Annexin V-FITC binding (Ex=488 nm; Em=530 nm) using FITC signal detector and PI staining by the phycoerythrin emission signal detector. Percentage of Annexin V^low and PI^low were quantified and presented as % Viability.

T98G GBM cells [3] = system: T98G GBM cells
Protocol: (§3) T98G cells were set at a density of 2×10^3/well in 200 μL of RPMI+1.5% fetal bovine serum (FBS) in black-walled Nunc™ MicroWell™ 96-Well Optical-Bottom Plates with Polymer Base.
(§4) On day −1, adherent T98G cells were washed of complete media (RPMI+10% FBS) with 6 mL Dulbecco's Phosphate Buffered Saline (DPBS), and dissociated from T25 Nunclon™ Delta flask with 2 mL trypsin at room temperature. Trypsin was quenched with 6 mL complete media, and cells were resuspended in fresh complete media at a concentration of 1×10^6 cells/mL. Cells were then adjusted to a concentration of 1×10^4 cells/mL in RPMI+1.5% FBS, and 200 μL of culture was added to each well (B2 to G11) of a Nunc™ 96-well Flat Bottom Black Polystyrol Clear Bottom plate to a final cell concentration of 2×10^3 cells/well. Cells were set in an incubator at 37° C. and 5% CO2 with humidity for 24 hours.
(§5) On day 0, 100 μL of media was removed from each well.
(§6) On day 3, media was removed from wells, and wells were washed with 100 μL DPBS. Cells were resuspended in 100 μL RPMI+10% FBS. CellTiter-Blue® Cell Viability Assay (Promega Corp., Madison, Wis.) was performed by adding 20 μL of CellTiter-Blue® reagent to each well. Plates were returned to the incubator at 37° C. and 5% CO2 with humidity for 1.5-2 hours. CellTiter-Blue® assay results were read by Eppendorf PlateReader AF2200 at Ex. 535 nm/Em. 595 nm according to manufacturer's instructions. Data is presented as % Viability. Cell viability was calculated as (Sample value/Buffer control value)×100. EC50 values were calculated using GraphPad Prism v.7 XML.

U87 cells [4] = assay: Annexin V/PI cell viability assay in U87 cells; assay type: cell-based; conditions: 48-hour incubation, read-out: EC50 (μM) of ATF-5-Derived Polypeptides in Cancer Cells, U87
Protocol: as §1
(§2) Alternatively, adherent U251 or U87 cells were set at a density of 3.5×10^3 cells/well in 150 μL of media on day −1. On day 0, media was removed and replenished with 150 μL of fresh media, and cells were treated with ST-3 as described. […] Cell viability was determined as described above for suspension cells.

U251 GBM cells = assay: Annexin V/PI cell viability assay in U251 cells; assay type: cell-based; conditions: 48-hour incubation, read-out: EC50 (μM) of ATF-5-Derived Polypeptides in Cancer Cells, U251
Protocol: as §1, §2

T98G GBM cells [5] = assay: CellTiter-Blue cell viability assay in T98G cells; conditions: read-out: EC50 (μM) of ATF-5-Derived Polypeptides in Cancer Cells, T98G, 72 hours
Protocol: as §3, §4, §5, §6

neoplastic cells = conditions: systemically administered; cited from earlier work

Molecule | EC50 [2] [µM] | EC50 (U87 cells [4]) [µM] | EC50 (U251 GBM cells) [µM] | EC50 (T98G GBM cells [5]) [µM] | other results
CC1(C)CCC(c2ccc(Cl)cc2)=C(CN2CCN(c3ccc(C(=O)NS(=O)(=O)c4ccc(N[C@H](CCN5CCOCC5)CSc5ccccc5)c(S(=O)(=O)C(F)(F)F)c4)cc3)CC2)C1 [ABT-263, ABT-263 (Navitoclax)] |  |  |  |  | % Caspase Activation, ABT-263 alone (U87 cells [1]; ST-3 0 μM, ABT-263 0.5 μM, % of positive control): 15.5% and 15.32%
CN[C@@H]1C[C@H]2O[C@@](C)([C@@H]1OC)n1c3ccccc3c3c4c(c5c6ccccc6n2c5c31)C(=O)NC4 [Positive Control, staurosporine] |  |  |  |  | % Caspase Activation, positive control (U87 cells [1]; staurosporine 10 μM, reference set to 100): 100%
RQIKIWFQNRRMKWKKLEGECQGLEARNRELKERAESV [ST-3] | 16 | 45 | 42 | 69 | cytotoxic activity compared to ST-2 (T98G GBM cells [3]): unexpectedly superior cytotoxic activity over ST-2
RQIKIWFQNRRMKWKKLEQRAEELARENEELLEKEAEELEQENAELEGECQGLEARNRELRERAESV [ST-2] | > 200 | > 200 | > 200 | > 200 | blood-brain barrier crossing, cell entry and apoptosis of neoplastic cells (neoplastic cells): can cross the blood-brain barrier, enter cells, and selectively trigger the apoptotic death of neoplastic cells
YGRKKRRQRRLEGECQGLEARNRELKERAESV [ATF5 Polypeptide with Tat CPP] |  |  |  |  | cytotoxic activity ([2]; HL-60 cell viability assay): has cytotoxic activity

From patent US10316077B2, “Cell-penetrating ATF5 polypeptides and uses thereof” (Sapience Therapeutics, Inc., priority 2017, dated 2019)
